{"source": "patent US20100041630A1", "about": "“Methods for Treating or Preventing Inflammation Using a Glycerophosphate Salt” (PRELIEF INC., priority 2007, published 2010)", "system": "rats with inflammatory condition associated with polyarthritis", "assay": "Therapeutic effectiveness in rats with polyarthritis induced by heat-killed Mycobacterium tuberculosis", "assay_type": "in vivo", "conditions": "therapeutically effective amount, injection 1 to 5 times a day for 3-10 days, polyarthritic rats", "data": [{"substance": "calcium glycerophosphate [CGP]", "values": [{"measurement": "reduction of the overall arthritis score", "result": "at least 20%"}]}]}
